Results reported in patent US20240041386A1, “MICROCHIP BASED RECORDING OF NEUROVASCULAR ACTIVITY AND BEHAVIOR” (NEUREFLECT, INC., priority 2021, published 2024).

Test system: cortical spreading depression (CSD)
Experiment: Optically triggered cortical spreading depression (CSD) threshold in mice with skull-attached microchip
Assay type: in vivo
Conditions: Thy1/ChR2 mice under isoflurane anesthesia, compared with the wake state; data not shown
Protocol: Cortical spreading depression (CSD) in freely behaving mice was triggered optically by administering sequential pulses of light with increasing duration until CSD was observed based on OIS. After each light pulse, OIS was monitored for at least 10 minutes for the occurrence of CSD. If CSD occurred, no further stimulus pulses were delivered, whereas if no CSD occurred, then the duration was increased with the subsequent pulse. To trigger CSD under anesthesia, the cage that the animal was housed in was rapidly flushed with 2% isoflurane in a 20/80% O2/N2 gas mixture. After the animal lost consciousness, the isoflurane was reduced to 1.5% to sustain anesthesia. For prolonged experiments a heating pad set at 37° C. was placed under the cage and a small paper blanket was placed over the animal to maintain its core temperature. Breathing pattern and paw color were continuously monitored. Anesthesia was maintained until CBV returned to baseline levels at the end of the CSD. […] After each light pulse, OIS was monitored for a t least 10 minutes for a CSD, If CSD occurred, no further pulses were delivered. If a baseline threshold was well determined, stimulations were started 3-4 steps before that baseline for subsequent CSDs. […] These measurements illustrate that threshold for optically triggering CSD can be quantified based upon the duration of light stimulation required to evoke CSD. […]

## FC(F)OC(Cl)C(F)(F)F (stereo not shown) [isoflurane]
  threshold for triggering CSD (duration of blue light stimulation required to evoke CSD): significantly lower than in the wake state
